Consider 16 compounds from patent US9790228B2, “Heterocyclic kinase inhibitors” (Intellikine LLC, priority 2008, dated 2017).

Chain of p110β/p85α (P42338 whole entry, looked up): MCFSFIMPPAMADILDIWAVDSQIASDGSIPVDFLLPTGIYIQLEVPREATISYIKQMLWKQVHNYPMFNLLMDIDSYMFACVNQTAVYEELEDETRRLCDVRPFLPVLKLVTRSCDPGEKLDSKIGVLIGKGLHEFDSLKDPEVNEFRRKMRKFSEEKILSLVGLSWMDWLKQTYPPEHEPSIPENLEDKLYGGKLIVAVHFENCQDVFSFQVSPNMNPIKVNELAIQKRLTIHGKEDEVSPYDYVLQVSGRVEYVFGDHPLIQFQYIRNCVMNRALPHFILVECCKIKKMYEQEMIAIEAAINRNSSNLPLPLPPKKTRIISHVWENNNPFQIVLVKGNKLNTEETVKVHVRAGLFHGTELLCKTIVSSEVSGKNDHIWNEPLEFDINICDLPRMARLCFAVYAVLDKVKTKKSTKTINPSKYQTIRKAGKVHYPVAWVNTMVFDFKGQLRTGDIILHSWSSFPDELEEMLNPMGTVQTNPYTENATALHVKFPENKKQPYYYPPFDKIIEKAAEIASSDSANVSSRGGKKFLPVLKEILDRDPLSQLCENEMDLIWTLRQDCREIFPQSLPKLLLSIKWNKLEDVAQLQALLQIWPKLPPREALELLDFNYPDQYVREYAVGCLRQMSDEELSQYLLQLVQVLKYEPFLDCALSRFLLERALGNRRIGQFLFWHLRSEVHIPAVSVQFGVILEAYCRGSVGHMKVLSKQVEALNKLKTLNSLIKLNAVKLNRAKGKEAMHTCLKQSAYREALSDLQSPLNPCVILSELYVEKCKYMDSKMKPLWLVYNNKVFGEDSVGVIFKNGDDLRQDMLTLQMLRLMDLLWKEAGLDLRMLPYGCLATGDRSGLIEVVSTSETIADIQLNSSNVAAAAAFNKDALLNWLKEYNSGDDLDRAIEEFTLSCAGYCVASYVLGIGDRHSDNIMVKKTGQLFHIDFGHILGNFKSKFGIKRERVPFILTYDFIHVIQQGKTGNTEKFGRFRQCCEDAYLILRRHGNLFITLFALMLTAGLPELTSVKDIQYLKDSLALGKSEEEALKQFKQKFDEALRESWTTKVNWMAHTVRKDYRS
Chain of p110γ (P48736 whole entry): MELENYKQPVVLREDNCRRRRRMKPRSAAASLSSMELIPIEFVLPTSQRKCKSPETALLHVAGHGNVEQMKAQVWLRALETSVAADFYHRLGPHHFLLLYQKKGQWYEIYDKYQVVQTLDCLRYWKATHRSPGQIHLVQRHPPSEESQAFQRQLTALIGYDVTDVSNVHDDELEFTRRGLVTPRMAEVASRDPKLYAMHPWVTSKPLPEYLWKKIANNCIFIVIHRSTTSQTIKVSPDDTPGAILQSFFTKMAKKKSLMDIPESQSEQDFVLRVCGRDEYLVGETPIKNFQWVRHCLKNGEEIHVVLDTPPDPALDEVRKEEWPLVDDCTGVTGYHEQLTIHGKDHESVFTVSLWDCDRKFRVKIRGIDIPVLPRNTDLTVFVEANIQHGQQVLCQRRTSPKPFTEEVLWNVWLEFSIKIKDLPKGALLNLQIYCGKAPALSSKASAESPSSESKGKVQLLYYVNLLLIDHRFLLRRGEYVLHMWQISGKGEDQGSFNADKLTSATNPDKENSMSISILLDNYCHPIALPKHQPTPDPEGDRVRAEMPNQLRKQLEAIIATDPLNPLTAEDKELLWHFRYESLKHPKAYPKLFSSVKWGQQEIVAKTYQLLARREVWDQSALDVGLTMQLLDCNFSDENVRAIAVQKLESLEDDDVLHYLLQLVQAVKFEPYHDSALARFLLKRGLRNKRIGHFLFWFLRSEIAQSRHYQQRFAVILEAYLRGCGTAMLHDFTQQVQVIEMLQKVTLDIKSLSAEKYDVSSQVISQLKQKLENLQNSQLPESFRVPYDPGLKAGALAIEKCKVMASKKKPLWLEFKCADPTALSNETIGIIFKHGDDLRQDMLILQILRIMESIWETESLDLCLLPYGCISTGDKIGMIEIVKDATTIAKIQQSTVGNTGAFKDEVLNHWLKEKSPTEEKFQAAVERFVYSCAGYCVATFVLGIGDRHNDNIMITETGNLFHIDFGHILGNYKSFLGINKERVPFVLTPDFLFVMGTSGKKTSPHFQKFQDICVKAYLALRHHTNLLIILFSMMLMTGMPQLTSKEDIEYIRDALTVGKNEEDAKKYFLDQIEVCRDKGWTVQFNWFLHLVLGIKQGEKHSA
Chain of p110α/p85α (P42336 whole entry): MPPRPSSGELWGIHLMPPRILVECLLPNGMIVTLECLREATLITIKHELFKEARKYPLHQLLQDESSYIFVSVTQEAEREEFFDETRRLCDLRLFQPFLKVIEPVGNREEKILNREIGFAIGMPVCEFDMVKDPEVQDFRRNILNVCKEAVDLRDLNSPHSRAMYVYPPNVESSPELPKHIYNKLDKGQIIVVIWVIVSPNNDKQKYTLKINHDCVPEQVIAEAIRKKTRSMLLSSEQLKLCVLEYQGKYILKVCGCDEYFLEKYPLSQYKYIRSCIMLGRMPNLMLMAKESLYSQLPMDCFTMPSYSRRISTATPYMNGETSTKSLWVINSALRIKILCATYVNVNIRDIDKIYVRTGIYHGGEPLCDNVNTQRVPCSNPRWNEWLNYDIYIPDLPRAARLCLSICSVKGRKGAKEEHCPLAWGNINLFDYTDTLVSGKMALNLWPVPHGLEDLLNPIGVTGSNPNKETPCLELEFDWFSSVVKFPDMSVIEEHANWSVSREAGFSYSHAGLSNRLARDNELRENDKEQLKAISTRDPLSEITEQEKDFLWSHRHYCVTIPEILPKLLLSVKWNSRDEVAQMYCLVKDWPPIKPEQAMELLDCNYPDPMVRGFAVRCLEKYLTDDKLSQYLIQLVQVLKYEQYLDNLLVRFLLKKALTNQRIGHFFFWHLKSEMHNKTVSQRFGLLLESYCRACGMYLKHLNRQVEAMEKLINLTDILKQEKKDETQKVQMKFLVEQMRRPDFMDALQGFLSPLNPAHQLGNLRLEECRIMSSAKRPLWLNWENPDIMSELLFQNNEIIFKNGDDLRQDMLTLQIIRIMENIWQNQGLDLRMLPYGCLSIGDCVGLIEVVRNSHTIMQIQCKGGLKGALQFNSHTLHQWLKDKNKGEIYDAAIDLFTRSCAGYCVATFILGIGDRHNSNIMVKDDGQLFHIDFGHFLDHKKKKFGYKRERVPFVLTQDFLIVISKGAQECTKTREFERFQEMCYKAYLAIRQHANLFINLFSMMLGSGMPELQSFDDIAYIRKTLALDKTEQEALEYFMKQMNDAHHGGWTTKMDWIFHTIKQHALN
Chain of p110α/p85α (P27986 whole entry partner): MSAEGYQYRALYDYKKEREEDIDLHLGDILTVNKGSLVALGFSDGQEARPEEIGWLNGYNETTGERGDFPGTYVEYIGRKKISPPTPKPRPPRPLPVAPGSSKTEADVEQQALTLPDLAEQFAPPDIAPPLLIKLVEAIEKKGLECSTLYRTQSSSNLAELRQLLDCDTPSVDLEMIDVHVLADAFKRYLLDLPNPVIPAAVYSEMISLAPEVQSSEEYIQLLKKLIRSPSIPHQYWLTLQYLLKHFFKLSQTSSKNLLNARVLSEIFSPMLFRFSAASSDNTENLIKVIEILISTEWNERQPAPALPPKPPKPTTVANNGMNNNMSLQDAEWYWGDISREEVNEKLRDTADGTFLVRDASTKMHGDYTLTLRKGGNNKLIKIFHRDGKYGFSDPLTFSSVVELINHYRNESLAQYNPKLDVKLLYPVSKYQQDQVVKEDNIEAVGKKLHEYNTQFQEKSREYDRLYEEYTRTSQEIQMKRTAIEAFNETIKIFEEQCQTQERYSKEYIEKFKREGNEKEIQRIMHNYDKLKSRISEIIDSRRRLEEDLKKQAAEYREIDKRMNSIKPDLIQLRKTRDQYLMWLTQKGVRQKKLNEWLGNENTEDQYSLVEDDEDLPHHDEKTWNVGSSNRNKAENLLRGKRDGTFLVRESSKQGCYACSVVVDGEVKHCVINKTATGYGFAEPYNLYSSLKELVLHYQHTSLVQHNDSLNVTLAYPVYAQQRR

One experiment addresses p110γ (Homo sapiens (Human), UniProt P48736). Kind of experiment: PI3K γ inhibition assay (TLC lipid kinase or HTRF).
Details: not given
The format is biochemical. How it is done: (§1) Class I PI3-Ks can be either purchased (p110α/p85α, p110β/p85α, p110δ/p85α from Upstate, and p110γ from Sigma) or expressed as previously described (Knight et al., 2004). IC50 values are measured using either a standard TLC assay for lipid kinase activity (described below) or a high-throughput membrane capture assay. Kinase reactions are performed by preparing a reaction mixture containing kinase, inhibitor (2% DMSO final concentration), buffer (25 mM HEPES, pH 7.4, 10 mM MgCl2), and freshly sonicated phosphatidylinositol (100 μg/ml). Reactions are initiated by the addition of ATP containing 10 μCi of γ-32P-ATP to a final concentration 10 or 100 μM and allowed to proceed for 5 minutes at room temperature. For TLC analysis, reactions are then terminated by the addition of […] 1N HCl followed by 160 μl CHCl3:MeOH (1:1). The biphasic mixture is vortexed, briefly centrifuged, and the organic phase is transferred to a new tube using a gel loading pipette tip precoated with CHCl3. This extract is spotted on TLC plates and developed for 3-4 hours in a 65:35 solution of n-propanol:1M acetic acid. The TLC plates are then dried, exposed to a phosphorimager screen (Storm, Amersham), and quantitated. For each compound, kinase activity is measured at 10-12 inhibitor concentrations representing two-fold dilutions from the highest concentration tested (typically, 200 μM).
(§2) Other commercial kits or systems for assaying PI3-K activities are available. The commercially available kits or systems can be used to screen for inhibitors and/or agonists of PI3-Ks including but not limited to PI 3-Kinase α, β, δ, and γ. Anr exemplary system is PI3-Kinase (human) HTRF™ Assay from Upstate. […] Briefly, the assay is a time resolved FRET assay that indirectly measures PIP3 product formed by the activity of a PI3-K. The kinase reaction is performed in a microtitre plate (e.g., a 384 well microtitre plate). The total reaction volume is approximately 20 ul per well. In the first step, each well receives 2 ul of test compound in 20% dimethylsulphoxide resulting in a 2% DMSO final concentration. Next, approximately 14.5 ul of a kinase/PIP2 mixture (diluted in 1× reaction buffer) is added per well for a final concentration of 0.25-0.3 ug/ml kinase and 10 uM PIP2. The plate is sealed and incubated for 15 minutes at room temperature. To start the reaction, 3.5 ul of ATP (diluted in 1× reaction buffer) is added per well for a final concentration of 10 uM ATP. The plate is sealed and incubated for 1 hour at room temperature. The reaction is stopped by adding 5 ul of Stop Solution per well and then 5 ul of Detection Mix is added per well. The plate is sealed, incubated for 1 hour at room temperature, and then read on an appropriate plate reader. Data is analyzed and IC50s are generated using GraphPad Prism 5.
Regarding `CCn1c(=O)c(Cn2nc(-c3ccc4nc(N)sc4c3)c3c(N)ncnc32)nc2ccccc21` [Compound 119], the IC50 (usually the midpoint of a concentration-inhibition curve) is < 100 nM.
Regarding `CCc1nc2ccccc2cc1Cn1nc(-c2ccc3nc(N)sc3c2)c2c(N)ncnc21` [Compound 99], the IC50 is < 100 nM.
With `Cc1cccc2cc(Cn3nc(-c4cccc(O)c4)c4c(N)ncnc43)c(N3CCOCC3)nc12` [Compound 66], the IC50 was < 100 nM.
In the case of `Nc1ncnc2c1c(/C=C1/CCNC1=O)nn2Cc1cc2ccccc2nc1-c1ccccc1F` [Compound 193], the IC50 was > 1000 nM.
Still for that read-out and setting: to `CC(Nc1ncnc2[nH]cnc12)c1cc2ccccc2nc1-c1ccccc1` (stereo not shown) [Compound 93] belongs 100 to 1000 nM; to `C=Cc1nn(Cc2cc3ccccc3nc2-c2ccccc2F)c2ncnc(N)c12` [Compound 190], > 1000 nM.
In the case of `CC(C)n1c(=O)c(Cn2nc(-c3cccc(O)c3)c3c(N)ncnc32)cc2ccccc21` [Compound 110], the IC50 was > 1000 nM.
Still for that read-out and setting: to `CCc1nc2ccccc2cc1Cn1nc(-c2cccc(O)c2)c2c(N)ncnc21` [Compound 96] belongs 100 to 1000 nM; to `CCn1c(=O)c(Cn2nc(-c3cc(O)cc(F)c3)c3c(N)ncnc32)cc2ccccc21` [Compound 113], > 1000 nM; to `CN1CCN(c2nc3ccccc3cc2Cn2cnc3c(N)ncnc32)CC1` [Compound 67], > 1000 nM.
For `CCn1c(=O)c(Cn2nc(-c3cccc(O)c3)c3c(N)ncnc32)nc2ccccc21` [Compound 116], the IC50 is > 1000 nM.
As to `CCn1c(=O)c(Cn2nc(-c3cc(O)cc(F)c3)c3c(N)ncnc32)nc2ccccc21` [Compound 117], the IC50 was > 1000 nM.
Consider `Nc1ncnc2c1c(-c1cc(O)cc(F)c1)nn2Cc1cc2ccccc2[nH]c1=O` [Compound 114], for which the half-maximal inhibitory concentration (IC50) was > 1000 nM.
Regarding `Nc1ncnc2c1c(-c1cc(O)cc(F)c1)nn2Cc1cc2ccccc2nc1NC1CC1` [Compound 29], the IC50 is > 1000 nM.
Turning to `CCC(Nc1ncnc2[nH]cnc12)c1cc2ccccc2nc1N1CCN(C)CC1` (stereo not shown) [Compound 95], the IC50 is > 1000 nM.
Compound `CCc1nc2ccccc2cc1Cn1nc(-c2cc(O)cc(F)c2)c2c(N)ncnc21` [Compound 97] showed an IC50 of 100 to 1000 nM.

The target of a further experiment is p110δ/p85α (Homo sapiens (Human), UniProt O00329). Kind of experiment: PI3K δ inhibition assay (TLC lipid kinase or HTRF). The format is biochemical.
Chain of p110δ/p85α (O00329 whole entry): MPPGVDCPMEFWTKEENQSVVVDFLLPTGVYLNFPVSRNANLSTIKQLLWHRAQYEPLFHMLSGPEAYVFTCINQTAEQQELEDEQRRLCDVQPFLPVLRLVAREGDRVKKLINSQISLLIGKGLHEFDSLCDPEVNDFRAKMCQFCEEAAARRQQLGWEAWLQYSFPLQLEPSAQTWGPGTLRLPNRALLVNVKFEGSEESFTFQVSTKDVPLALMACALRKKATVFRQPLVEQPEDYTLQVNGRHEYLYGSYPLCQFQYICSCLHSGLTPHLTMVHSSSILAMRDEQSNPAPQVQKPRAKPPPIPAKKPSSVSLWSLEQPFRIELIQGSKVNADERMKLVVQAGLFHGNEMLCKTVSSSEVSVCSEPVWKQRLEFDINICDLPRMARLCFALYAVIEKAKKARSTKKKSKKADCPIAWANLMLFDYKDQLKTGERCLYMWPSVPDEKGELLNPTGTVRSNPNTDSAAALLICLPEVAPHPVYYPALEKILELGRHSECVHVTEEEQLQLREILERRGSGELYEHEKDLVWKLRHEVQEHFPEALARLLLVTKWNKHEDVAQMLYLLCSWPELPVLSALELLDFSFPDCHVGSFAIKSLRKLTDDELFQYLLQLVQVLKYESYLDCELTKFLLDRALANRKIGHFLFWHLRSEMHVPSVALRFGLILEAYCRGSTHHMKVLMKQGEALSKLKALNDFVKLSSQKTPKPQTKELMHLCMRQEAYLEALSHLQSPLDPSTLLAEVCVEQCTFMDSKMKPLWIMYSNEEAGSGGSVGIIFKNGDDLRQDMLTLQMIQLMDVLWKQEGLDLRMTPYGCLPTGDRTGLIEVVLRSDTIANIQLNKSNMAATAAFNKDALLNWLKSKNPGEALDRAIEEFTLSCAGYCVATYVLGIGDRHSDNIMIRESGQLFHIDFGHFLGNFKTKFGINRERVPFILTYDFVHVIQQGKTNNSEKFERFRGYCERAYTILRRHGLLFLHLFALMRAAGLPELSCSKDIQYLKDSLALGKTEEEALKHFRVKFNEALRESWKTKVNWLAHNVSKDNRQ
Chain of p110δ/p85α (P27986 whole entry partner): as the sequence (P27986 whole entry partner) above
Details: not given
How it is done:
as §1, §2
(In general: TR-FRET usually uses a lanthanide donor and a delayed reading to cut background.)
`CCn1c(=O)c(Cn2nc(-c3ccc4nc(N)sc4c3)c3c(N)ncnc32)nc2ccccc21` [Compound 119]: the concentration for half-maximal inhibition (IC50) is < 100 nM.
On the same count and under the same terms, in the case of `CCc1nc2ccccc2cc1Cn1nc(-c2ccc3nc(N)sc3c2)c2c(N)ncnc21` [Compound 99] it was < 100 nM.
On the same count and under the same terms, to `Cc1cccc2cc(Cn3nc(-c4cccc(O)c4)c4c(N)ncnc43)c(N3CCOCC3)nc12` [Compound 66] belongs < 100 nM.
Same read-out and setting: in the case of `Nc1ncnc2c1c(/C=C1/CCNC1=O)nn2Cc1cc2ccccc2nc1-c1ccccc1F` [Compound 193] it was > 1000 nM; in that of `CC(Nc1ncnc2[nH]cnc12)c1cc2ccccc2nc1-c1ccccc1` (stereo not shown) [Compound 93], < 100 nM.
Take `C=Cc1nn(Cc2cc3ccccc3nc2-c2ccccc2F)c2ncnc(N)c12` [Compound 190]: the IC50 was > 1000 nM.
The compound `CC(C)n1c(=O)c(Cn2nc(-c3cccc(O)c3)c3c(N)ncnc32)cc2ccccc21` [Compound 110] returned an IC50 of 100 to 1000 nM.
Still for that read-out and setting: to `CCc1nc2ccccc2cc1Cn1nc(-c2cccc(O)c2)c2c(N)ncnc21` [Compound 96] belongs < 100 nM.
`CCn1c(=O)c(Cn2nc(-c3cc(O)cc(F)c3)c3c(N)ncnc32)cc2ccccc21` [Compound 113]: the IC50 is < 100 nM.
On the same count and under the same terms, to `CN1CCN(c2nc3ccccc3cc2Cn2cnc3c(N)ncnc32)CC1` [Compound 67] belongs > 1000 nM; to `CCn1c(=O)c(Cn2nc(-c3cccc(O)c3)c3c(N)ncnc32)nc2ccccc21` [Compound 116], 100 to 1000 nM; to `CCn1c(=O)c(Cn2nc(-c3cc(O)cc(F)c3)c3c(N)ncnc32)nc2ccccc21` [Compound 117], < 100 nM.
As to `Nc1ncnc2c1c(-c1cc(O)cc(F)c1)nn2Cc1cc2ccccc2[nH]c1=O` [Compound 114], the IC50 is < 100 nM.
`Nc1ncnc2c1c(-c1cc(O)cc(F)c1)nn2Cc1cc2ccccc2nc1NC1CC1` [Compound 29]: the IC50 was 100 to 1000 nM.
Consider `CCC(Nc1ncnc2[nH]cnc12)c1cc2ccccc2nc1N1CCN(C)CC1` (stereo not shown) [Compound 95], for which the IC50 was < 100 nM.
Still for that read-out and setting: to `CCc1nc2ccccc2cc1Cn1nc(-c2cc(O)cc(F)c2)c2c(N)ncnc21` [Compound 97] belongs < 100 nM.

The target in another experiment is p110β/p85α (Homo sapiens, UniProt P42338). Description: PI3K β inhibition assay (TLC lipid kinase or HTRF). In kind it is biochemical. The note with it: PI3K β IC50. How it is done:
as §1, §2
Take `CN1CCN(c2nc3ccccc3cc2Cn2cnc3c(N)ncnc32)CC1` [Compound 67]: the IC50 was > 1000 nM.

Still in this experiment, the particulars now being: read-out: PI3K β IC50.
With `CCn1c(=O)c(Cn2nc(-c3ccc4nc(N)sc4c3)c3c(N)ncnc32)nc2ccccc21` [Compound 119], the IC50 is > 1000 nM.
On to `CCc1nc2ccccc2cc1Cn1nc(-c2ccc3nc(N)sc3c2)c2c(N)ncnc21` [Compound 99], for which the IC50 lay in the range of 100 to 1000 nM.
As for `Cc1cccc2cc(Cn3nc(-c4cccc(O)c4)c4c(N)ncnc43)c(N3CCOCC3)nc12` [Compound 66], the IC50 lay in the range of 100 to 1000 nM.
The same measure, in the same setting: to `Nc1ncnc2c1c(/C=C1/CCNC1=O)nn2Cc1cc2ccccc2nc1-c1ccccc1F` [Compound 193] belongs > 1000 nM.
For the compound `CC(Nc1ncnc2[nH]cnc12)c1cc2ccccc2nc1-c1ccccc1` (stereo not shown) [Compound 93], the IC50 is > 1000 nM.
As to `C=Cc1nn(Cc2cc3ccccc3nc2-c2ccccc2F)c2ncnc(N)c12` [Compound 190], the IC50 was > 1000 nM.
For the compound `CC(C)n1c(=O)c(Cn2nc(-c3cccc(O)c3)c3c(N)ncnc32)cc2ccccc21` [Compound 110], the IC50 was > 1000 nM.
Consider `CCc1nc2ccccc2cc1Cn1nc(-c2cccc(O)c2)c2c(N)ncnc21` [Compound 96], for which the half-inhibitory concentration (IC50) was > 1000 nM.
On to `CCn1c(=O)c(Cn2nc(-c3cc(O)cc(F)c3)c3c(N)ncnc32)cc2ccccc21` [Compound 113], for which the IC50 is > 1000 nM.
Regarding `CCn1c(=O)c(Cn2nc(-c3cccc(O)c3)c3c(N)ncnc32)nc2ccccc21` [Compound 116], the concentration for half-maximal inhibition (IC50) is > 1000 nM.
As to `CCn1c(=O)c(Cn2nc(-c3cc(O)cc(F)c3)c3c(N)ncnc32)nc2ccccc21` [Compound 117], the IC50 was > 1000 nM.
For `Nc1ncnc2c1c(-c1cc(O)cc(F)c1)nn2Cc1cc2ccccc2[nH]c1=O` [Compound 114], the IC50 was > 1000 nM.
Regarding `Nc1ncnc2c1c(-c1cc(O)cc(F)c1)nn2Cc1cc2ccccc2nc1NC1CC1` [Compound 29], the IC50 was > 1000 nM.
Take `CCC(Nc1ncnc2[nH]cnc12)c1cc2ccccc2nc1N1CCN(C)CC1` (stereo not shown) [Compound 95]: the IC50 was > 1000 nM.
Same read-out and setting: to `CCc1nc2ccccc2cc1Cn1nc(-c2cc(O)cc(F)c2)c2c(N)ncnc21` [Compound 97] belongs 100 to 1000 nM.

The next experiment concerns the target p110α/p85α (Homo sapiens (Human), UniProt P42336). Description: PI3K α inhibition assay (TLC lipid kinase or HTRF). In kind it is biochemical.
Details: not given
How it is done: as §1, §2
`CCn1c(=O)c(Cn2nc(-c3ccc4nc(N)sc4c3)c3c(N)ncnc32)nc2ccccc21` [Compound 119] came in with an IC50 of 100 to 1000 nM.
Same read-out and setting: in the case of `CCc1nc2ccccc2cc1Cn1nc(-c2ccc3nc(N)sc3c2)c2c(N)ncnc21` [Compound 99] it was 100 to 1000 nM.
For `Cc1cccc2cc(Cn3nc(-c4cccc(O)c4)c4c(N)ncnc43)c(N3CCOCC3)nc12` [Compound 66], the IC50 is > 1000 nM.
Consider `Nc1ncnc2c1c(/C=C1/CCNC1=O)nn2Cc1cc2ccccc2nc1-c1ccccc1F` [Compound 193], for which the IC50 is > 1000 nM.
Consider `CC(Nc1ncnc2[nH]cnc12)c1cc2ccccc2nc1-c1ccccc1` (stereo not shown) [Compound 93], for which the IC50 was > 1000 nM.
With `C=Cc1nn(Cc2cc3ccccc3nc2-c2ccccc2F)c2ncnc(N)c12` [Compound 190], the IC50 was > 1000 nM.
In the case of `CC(C)n1c(=O)c(Cn2nc(-c3cccc(O)c3)c3c(N)ncnc32)cc2ccccc21` [Compound 110], the IC50 is > 1000 nM.
With `CCc1nc2ccccc2cc1Cn1nc(-c2cccc(O)c2)c2c(N)ncnc21` [Compound 96], the IC50 was > 1000 nM.
For `CCn1c(=O)c(Cn2nc(-c3cc(O)cc(F)c3)c3c(N)ncnc32)cc2ccccc21` [Compound 113], the 50% inhibitory concentration (IC50) is > 1000 nM.
Same read-out and setting: in the case of `CN1CCN(c2nc3ccccc3cc2Cn2cnc3c(N)ncnc32)CC1` [Compound 67] it was > 1000 nM; in that of `CCn1c(=O)c(Cn2nc(-c3cccc(O)c3)c3c(N)ncnc32)nc2ccccc21` [Compound 116], > 1000 nM.
`CCn1c(=O)c(Cn2nc(-c3cc(O)cc(F)c3)c3c(N)ncnc32)nc2ccccc21` [Compound 117]: the IC50 is > 1000 nM.
Take `Nc1ncnc2c1c(-c1cc(O)cc(F)c1)nn2Cc1cc2ccccc2[nH]c1=O` [Compound 114]: the IC50 is > 1000 nM.
For the compound `Nc1ncnc2c1c(-c1cc(O)cc(F)c1)nn2Cc1cc2ccccc2nc1NC1CC1` [Compound 29], the IC50 is > 1000 nM.
Still for that read-out and setting: in the case of `CCC(Nc1ncnc2[nH]cnc12)c1cc2ccccc2nc1N1CCN(C)CC1` (stereo not shown) [Compound 95] it was > 1000 nM.
As to `CCc1nc2ccccc2cc1Cn1nc(-c2cc(O)cc(F)c2)c2c(N)ncnc21` [Compound 97], the IC50 is > 1000 nM.
